Reference: patent US6960574B2, “Antagonists of RF-amide neuropeptides” (University of Florida, priority 2002, dated 2005)
Ends that are not written are not given here. Peptide text beside a SMILES is read from it. * marks the point of attachment. Dansyl = CN(C)c1cccc2c(S(=O)(=O)*)cccc12

What was measured:
[1] = Immobilized artificial membrane (IAM) chromatography; assay type: physicochemical
Description: The purity of this new neuropeptide FF antagonist was confirmed by combustion analysis [Table 1] (data were within ±0.4% of calculated values) and ESI mass spectrometry (no impurities exceeding 1% based on relative ion abundance). […] The compounds were also characterized by immobilized artificial membrane (IAM) chromatography, a method that furnishes capacity factors whose logarithm generally correlates with in vivo absorption [Pidgeon, et al., J. Med. Chem. 1995, 38, 590-594] including penetration across the BBB [Reichel, et al., Pharm. Res. 1998, 15, 1270-1274].
The combinatorial libraries herein were prepared on a SynPep (Dublin, Calif.) multiple peptide synthesizer. A Synthor 2000, Peptide International (Louisville, Ky.) instrument was used for the preparation of the individual compounds by Fmoc chemistry. Immobilized artificial membrane (IAM) chromatography was performed on a system that included a model SP 8810 precision isocratic pump, an SP 8880 autosampler with a 20-μL injection loop, an SP 8450 variable wavelength UV/VIS detector operated at 254 nm, and SP 4290 computing integrator (all from ThermoSeparation|SpectraPhysics, Fremont, Calif.). RP-HPLC purification was done on a system composed of an SP 200 binary gradient pump (ThermoSeparation), a Rheodyne (Cotati, Calif.) model 7125 injector valve equipped with a 5-mL sample loop, and an SP 100 UV/VIS detector (ThermoSeparation) operated at 210 nm. Electrospray ionization (ESI) and tandem mass spectra were obtained on a quadrupole ion trap instrument (LCQ, Finnigan MAT, San Jose, Calif.). NMR spectra were recorded on Bruker AVANCE instruments (Bremen, Germany). Resonance frequencies were 500 and 600 MHz for ^1H and 127 MHz for ^13C. The samples were dissolved in H2O/D2O (8/2, v/v).

[2] = target: receptor labeled by the radioiodinated analogue of 1 (4, [125I]-YLFQPQRF-NH2); neuropeptide FF receptor; assay: Competitive radioligand binding against 4 ([125I]Y8F-amide)
[3] = target: receptor labeled by the radioiodinated analogue of 1 (4, [125I]-YLFQPQRF-NH2); neuropeptide FF receptor; conditions: CNS membrane preparation, literature value; cited from earlier work
[4] = system: naloxone-precipitated withdrawal symptoms; conditions: administered subcutaneously; cited from earlier work
[5] = system: abstinence-like signs induced by neuropeptide FF (1); conditions: cited from earlier work
[6] = system: opiate abstinence syndrome; conditions: 2 μg i.c.v.; cited from earlier work

Row | Compound | kIAM′ (IAM capacity factor) [1] | log kIAM′ [1] | Ki ([2]; competition against 4) | Relative Binding Index (RBI) ([2]; mixture-based positional scanning, difference from averaged radioligand displacement of whole library (0), about 80 a.u. = 10-fold change in Ki) | inhibition constant (Ki) [3] | naloxone-precipitated withdrawal symptoms in morphine-dependent rats [4] | QMAS induced by 1 ([5]; rat, in vivo) | opiate abstinence syndrome in morphine-dependent rats [6] | quasi-morphine-abstinence syndrome (QMAS) in opiate-naive rats ([5]; 15 μg i.c.v.)
1 | CN(C)c1cccc2c(S(=O)(=O)N3CCCC3C(=O)NC(CCC(N)=O)C(=O)NC(CCCNC(=N)N)C(N)=O)cccc12 (stereo not drawn) [Compound 3, Dansyl-Pro-Gln-Arg-NH2, reference compound] (Dansyl-Pro-Gln-Arg-NH2; configuration not given here) | 5.9 | 0.77 | 13.6 µM | −34 a.u. | micromolar range | blunted | dose-dependently antagonized | – | –
2 | Phe-Leu-Phe-Gln-Pro-Gln-Arg-Phe-NH2 (FLFQPQRF-NH2) [Compound 1, endogenous neuropeptide FF] | – | – | – | – | – | – | – | precipitates | induces
